Columns and labels:
[1] = biological target: T1, Monocarboxylate transporter 1 (Rattus norvegicus) (UniProt P53987); assay: (§1) TP_TRANSPORTER: inhibition of pyruvate uptake in Xenopus laevis oocytes; assay type: functional, cell-based; design: concentration or dose not given beside the values; conditions: Oocyte
T1 sequence (whole entry): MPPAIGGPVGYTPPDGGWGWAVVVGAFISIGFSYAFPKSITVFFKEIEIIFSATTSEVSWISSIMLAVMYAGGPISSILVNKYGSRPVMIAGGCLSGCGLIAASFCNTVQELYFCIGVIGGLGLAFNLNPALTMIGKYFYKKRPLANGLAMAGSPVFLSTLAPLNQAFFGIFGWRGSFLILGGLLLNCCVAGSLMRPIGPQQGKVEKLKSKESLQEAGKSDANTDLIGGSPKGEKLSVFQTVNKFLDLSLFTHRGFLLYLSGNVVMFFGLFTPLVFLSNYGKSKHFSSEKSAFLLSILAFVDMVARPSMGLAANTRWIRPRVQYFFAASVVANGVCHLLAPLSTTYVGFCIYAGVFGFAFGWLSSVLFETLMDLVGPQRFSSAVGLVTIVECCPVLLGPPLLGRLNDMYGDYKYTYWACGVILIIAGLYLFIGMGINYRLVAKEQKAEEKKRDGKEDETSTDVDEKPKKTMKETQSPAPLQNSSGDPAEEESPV

[2] = biological target: T2, Monocarboxylate transporter 2 (Homo sapiens) (UniProt O60669); assay: as §1; assay type: functional, cell-based; design: concentration or dose not given beside the values; conditions: Oocyte
T2 sequence (whole entry): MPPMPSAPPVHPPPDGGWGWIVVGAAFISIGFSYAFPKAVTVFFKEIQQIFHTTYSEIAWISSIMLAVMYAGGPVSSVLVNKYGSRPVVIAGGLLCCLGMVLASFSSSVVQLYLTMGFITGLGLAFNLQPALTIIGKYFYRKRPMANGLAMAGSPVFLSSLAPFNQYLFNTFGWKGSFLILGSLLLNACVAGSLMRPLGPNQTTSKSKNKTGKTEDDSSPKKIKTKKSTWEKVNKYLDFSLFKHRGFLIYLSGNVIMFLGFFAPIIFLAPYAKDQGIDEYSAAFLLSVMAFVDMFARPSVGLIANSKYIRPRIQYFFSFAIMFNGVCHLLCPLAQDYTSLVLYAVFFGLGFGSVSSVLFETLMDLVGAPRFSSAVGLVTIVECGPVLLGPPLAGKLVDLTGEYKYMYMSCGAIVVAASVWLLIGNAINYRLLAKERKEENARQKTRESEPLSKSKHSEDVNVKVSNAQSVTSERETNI

| SMILES | Activity [1] | Activity [2] |
| --- | --- | --- |
| C[C@@H](O)C(=O)O | 30% | 10% |
| CC(O)CC(=O)O (racemic) | 20% | 30% |
| CC(O)C(=O)[O-].[Na+] (stereo unspecified) | 0% | 0% |
| O=CC[C@@H](O)[C@H](O)[C@H](O)CO | is not an inhibitor [-] | is not an inhibitor [-] |
| O=C(O)/C=C/c1cccc(O)c1 | 20% | 30% |
| CCC(O)C(=O)O (racemic) | 40% | 10% |
| CCOC(=O)/C=C/c1ccc(O)cc1 | 0% | 65% |
| O=C(O)CCCO | 40% | 10% |

From ChEMBL document CHEMBL2073879, “Human monocarboxylate transporter 2 (MCT2) is a high affinity pyruvate transporter” (J Biol Chem, 1998)
